Target: isomerase (Mus musculus (Mouse), UniProt Q91ZQ5)
Assay: In vivo murine isomerase assay (recovery of 11-cis-retinal after photobleaching)
Parameters: species or system CD-1 (albino) male mice
Conditions: for inhibition at 10 mg/kg / inhibition at 1 mg/kg / inhibition at 5 mg/kg / ED50: mouse; for inhibition at 10 mg/kg / inhibition at 1 mg/kg / inhibition at 5 mg/kg: po, negative numbers leveled to 0%; for inhibition at 10 mg/kg: 10 mg/kg oral gavage; for inhibition at 1 mg/kg: 1 mg/Kg oral gavage; for inhibition at 5 mg/kg: 5 mg/kg oral gavage; for ED50: estimated, oral gavage, read-out: ED50 (dose of compound that gives 50% inhibition of 11-cis retinal (oxime) recovery)
Protocol: The capability of styrenyl derivatives to inhibit isomerase is determined by an in vivo murine isomerase assay. Brief exposure of the eye to intense light (“photobleaching” of the visual pigment or simply “bleaching”) is known to photo-isomerize almost all 11-cis-retinal in the retina. The recovery of 11-cis-retinal after bleaching can be used to estimate the activity of isomerase in vivo. Procedures were performed essentially as described by Golczak et al., Proc. Natl. Acad. Sci. USA 102:8162-67 (2005). See also Deigner et al., Science, 244: 968-71 (1989); Gollapalli et al., Biochim Biophys Acta. 1651: 93-101 (2003); Parish, et al., Proc. Natl. Acad. Sci. USA, 14609-13 (1998); Radu, et al., Proc Natl Acad Sci USA 101: 5928-33 (2004). […] Mice were gavaged with styrenyl derivative compounds, Compound 1 or Compound 25. Compound B was included as a positive control, and Compound A with low activity was also included. After 1-72 hours in the dark, the mice were exposed to photobleaching of 3,000 lux of white light for 10 minutes. The mice were allowed to recover 2 hours in the dark. The animals were then sacrificed by carbon dioxide inhalation. Retinoids were extracted from the eye and the regeneration of 11-cis-retinal was assessed at various time intervals. All steps were performed in darkness with minimal redlight illumination (low light darkroom lights and […] flashlights for spot illumination as needed) (see, e.g., Maeda et al., J. Neurochem 85:944-956, 2003; Van Hooser et al., J Biol Chem 277:19173-82, 2002). After the mice were sacrificed, the eyes were immediately removed and placed in liquid nitrogen. The eyes were then homogenized in a glass/glass homogenizer (Kontes Glass Co., homogenizer & pestle 21) containing 1 ml retinoid analysis buffer (50 mM MOPS, 10 mM NH2OH, 50% EtOH, pH 7.0 (stock buffer was stored in absence of ethanol)). The eyes were homogenized until no visible tissue remained (approximately 3 minutes). The samples were incubated 20 minutes at room temperature (including homogenizing) and then placed on ice. One ml cold EtOH was added to the homogenate to rinse the pestle, and the homogenate mixture was transferred to 7 ml glass screwtop tubes on ice. The homogenizer was rinsed with 7 ml hexane, which was added to the 7 ml tubes on ice. The homogenate was mixed by vortexing at high speed for 1 minute. The phases were separated by centrifugation (5 minutes at 4000 rpm, 4° C.). The upper phase was collected and transferred to a clean glass test tube, taking care to avoid disturbing the interface by leaving approximately 0.2 ml of upper phase in the tube. The tubes with the collected upper phase were placed in a heating block at 25° C. and dried under a stream of Argon ( 30 minutes). The lower phase was again extracted by adding 4 ml hexane, vortexing, and separating the phases by centrifugation. The upper phase was collected as described above and pooled into the drying tubes. The dried samples were solubilized in 300 μl Hexane (Fisher Optima grade) and vortexed lightly. The samples were transferred to clean 300 μl glass inserts in HPLC vials using glass pipette and the vials were crimped shut tightly. […] Part #235341). […] The area under the curve for 11-cis retinal oxime was calculated by Agilent Chemstation software and was recorded manually. Data processing was performed using Prizm software. Positive control mice (no compound administered) were sacrificed fully dark-adapted and the eye retinoids analyzed. Light (bleached) control mice (no compound administered) were sacrificed and retinoids isolated and analyzed immediately after light treatment.

isomerase, sequence (Q91ZQ5 whole entry): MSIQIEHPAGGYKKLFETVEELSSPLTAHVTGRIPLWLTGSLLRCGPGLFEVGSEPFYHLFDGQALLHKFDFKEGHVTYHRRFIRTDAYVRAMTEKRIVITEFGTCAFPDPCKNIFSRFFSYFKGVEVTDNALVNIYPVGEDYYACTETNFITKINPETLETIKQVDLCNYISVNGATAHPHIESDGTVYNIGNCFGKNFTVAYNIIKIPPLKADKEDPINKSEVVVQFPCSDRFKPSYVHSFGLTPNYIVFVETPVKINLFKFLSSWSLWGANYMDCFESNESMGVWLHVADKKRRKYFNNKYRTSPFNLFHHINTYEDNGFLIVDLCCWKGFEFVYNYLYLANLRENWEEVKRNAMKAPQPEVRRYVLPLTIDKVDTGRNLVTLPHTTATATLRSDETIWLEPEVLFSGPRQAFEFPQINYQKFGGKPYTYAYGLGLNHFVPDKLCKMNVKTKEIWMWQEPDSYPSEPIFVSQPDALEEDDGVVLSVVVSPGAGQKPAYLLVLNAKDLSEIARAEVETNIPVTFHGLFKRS

Compound | inhibition at 10 mg/kg (4 h) | inhibition at 5 mg/kg (4 h) | inhibition at 5 mg/kg (24 h) | inhibition at 1 mg/kg (24 h) | inhibition at 1 mg/kg (6 h) | also measured
CC1=C(/C=C/c2cccc(C(F)CCN)c2)C(C)(C)CCC1 (stereo not shown) [Example 55, (E)-3-fluoro-3-(3-(2-(2,6,6-trimethylcyclohex-1-enyl)vinyl)phenyl)propan-1-amine] | – | 75% | 89% | – | – | inhibition at 1 mg/kg (2 h): 0%
CCCC(O)(/C=C/c1cccc(CCCN)c1)CCC [Example 83, (E)-4-(3-(3-aminopropyl)styryl)heptan-4-ol] | – | 97% | 3% | 0% | – | inhibition at 1 mg/kg (4 h): 55%
NC[C@@H](O)Cc1cccc(/C=C/c2c(Cl)cccc2Cl)c1 [Example 75, (S,E)-1-amino-3-(3-(2,6-dichlorostyryl)phenyl)propan-2-ol] | – | – | 85% | 13% | 20% | inhibition at 1 mg/kg (2 h): 19%; inhibition at 5 mg/kg (2 h): 81%; inhibition at 5 mg/kg (6 h): 90%
CC1=C(/C=C/c2cccc(C(=O)CCN)c2)C(C)(C)CCC1 [Example 56, (E)-3-amino-1-(3-(2-(2,6,6-trimethylcyclohex-1-enyl)vinyl)phenyl)propan-1-one] | – | – | – | 77% | 75% | inhibition at 1 mg/kg (2 h): 26%
CC1=C(/C=C/c2cccc(CC(C)CN)c2)C(C)(C)CCC1 (stereo not shown) [Example 26, (E)-2-methyl-3-(3-(2-(2,6,6-trimethylcyclohex-1-enyl)vinyl)phenyl)propan-1-amine] | 80% | – | – | – | – | –
CC1=C(/C=C/c2cccc(C(N)CCN)c2)C(C)(C)CCC1 (stereo not shown) [Example 61, (E)-1-(3-(2-(2,6,6-trimethylcyclohex-1-enyl)vinyl)phenyl)propane-1,3-diamine] | – | 12% | 0% | – | 0% | inhibition at 1 mg/kg (4 h): 0%
CC1=C(/C=C/c2cccc(C(C)CCN)c2)C(C)(C)CCC1 (stereo not shown) [Example 27, (E)-3-(3-(2-(2,6,6-trimethylcyclohex-1-enyl)vinyl)phenyl)butan-1-amine] | 11% | – | – | – | – | –
CC1=C(/C=C/c2cccc(C#CCN)c2)C(C)(C)CCC1 [Example 68, (E)-3-(3-(2-(2,6,6-trimethylcyclohex-1-enyl)vinyl)phenyl)prop-2-yn-1-amine] | 75% | – | – | – | – | –
CC1=C(/C=C/c2cccc(C(O)CCN)c2)C(C)(C)CCC1 (stereo not shown) [Compound 25, (E)-3-amino-1-(3-(2-(2,6,6-trimethylcyclohex-1-enyl)vinyl)phenyl)propan-1-ol] | 100% | – | – | 96% | – | inhibition at 1 mg/kg (4 h): 89%; ED50 (mice): 0.44 mg/kg
NCCC(O)c1cccc(/C=C/C2(O)CCCCC2)c1 (stereo not shown) [Example 111, (E)-1-(3-(3-amino-1-hydroxypropyl)styryl)cyclohexanol] | – | 90% | 0% | – | – | –
CC1=C(/C=C/c2cccc(OCCN)c2)C(C)(C)CCC1 [Example 31, (E)-2-(3-(2-(2,6,6-trimethylcyclohex-1-enyl)vinyl)phenoxy)ethanamine] | – | 53% | 46% | 0% | 2% | inhibition at 1 mg/kg (2 h): 0%
CC1=C(/C=C/c2cccc(C(O)C(C)CN)c2)C(C)(C)CCC1 (stereo not drawn) [Example 59, (E)-(syn/anti)-3-amino-2-methyl-1-(3-(2-(2,6,6-trimethylcyclohex-1-enyl)vinyl)phenyl)propan-1-ol] | – | 21% | 7% | – | 1% | inhibition at 1 mg/kg (4 h): 0%
NCCCc1cccc(/C=C/C2CCCCC2)c1 [Example 22, (E)-3-(3-(2-cyclohexylvinyl)phenyl)propan-1-amine] | 0% | – | – | – | – | –

Second part, led by results:

inhibition at 10 mg/kg (4 h) | inhibition at 5 mg/kg (4 h) | inhibition at 5 mg/kg (24 h) | inhibition at 1 mg/kg (24 h) | inhibition at 1 mg/kg (6 h) | Compound | also measured
0% | – | – | – | – | CCC/C=C/c1cccc(CCCN)c1 [Example 23, (E)-3-(3-(pent-1-enyl)phenyl)propan-1-amine] | –
80% | – | – | – | – | CC1=C(/C=C/c2cccc(CCCN)c2)C(C)(C)CCC1 [Example 21, (E)-3-(3-(2-(2,6,6-trimethylcyclohex-1-enyl)vinyl)phenyl)propan-1-amine] | –
80% | 57% | 58% | 0% | 0% | Cc1cccc(C)c1/C=C/c1cccc(CCCN)c1 [Example 1, (E)-3-(3-(2,6-dimethylstyryl)phenyl)propan-1-amine] | time of maximum inhibitory effect after gavage (isomerase inhibitory activity over time, mice, FIG. 1): ~6 h; inhibition at 1 mg/kg (2 h): 0%; ED50 (mice): 4.3 mg/kg
– | – | 56% | 9% | 40% | NC[C@H](O)Cc1cccc(/C=C/c2c(Cl)cccc2Cl)c1 [Example 74, (R,E)-1-amino-3-(3-(2,6-dichlorostyryl)phenyl)propan-2-ol] | inhibition at 1 mg/kg (2 h): 19%; inhibition at 5 mg/kg (2 h): 83%; inhibition at 5 mg/kg (6 h): 91%
36% | – | – | – | – | CNCCCc1cccc(/C=C/c2c(C)cccc2C)c1 [Example 7, (E)-3-(3-(2,6-dimethylstyryl)phenyl)-N-methylpropan-1-amine] | inhibition at 10 mg/kg (24 h): 8%
– | 24% | 0% | – | – | CC(C)(O)/C=C/c1cccc(CCCN)c1 [Example 79, (E)-4-(3-(3-aminopropyl)phenyl)-2-methylbut-3-en-2-ol] | –
52% | – | – | – | – | CCc1cccc(C)c1C=Cc1cccc(CCCN)c1 (mixture of isomers) [Example 32, (E/Z)-3-(3-(2-ethyl-6-methylstyryl)phenyl)propan-1-amine] | –
16% | – | – | – | – | CCCCC/C=C/c1cccc(CCCN)c1 [Example 24, (E)-3-(3-(hept-1-enyl)phenyl)propan-1-amine] | –
94% | 79% | 54% | 16% | 7% | NCCCc1cccc(/C=C/c2c(Cl)cccc2Cl)c1 [Example 43, (E)-3-(3-(2,6-dichlorostyryl)phenyl)propan-1-amine] | inhibition at 1 mg/kg (2 h): 0%
2% | – | – | – | – | Cc1cc(C)cc(C=Cc2cccc(CCCN)c2)c1 (mixture of isomers) [Example 40, (E/Z)-4-(3-(3,5-dimethylstyryl)phenyl)propan-1-amine] | –
– | 60% | 84% | 0% | – | NCCCc1cccc(/C=C/c2c(C(F)(F)F)cccc2C(F)(F)F)c1 [Example 49, (E)-3-(3-(2,6-bis(trifluoromethyl)styryl)phenyl)propan-1-amine] | inhibition at 1 mg/kg (4 h): 10%
76% | – | – | – | – | COc1ccccc1C=Cc1cccc(CCCN)c1 (mixture of isomers) [Example 41] | –
